Where “and” joins values, the source holds several entries; their conditions need not be identical. Identical values can stand only once. Where a SMILES comes first, the peptide text is derived from it. [ ]: non-standard residue; d: D form. Hyp = O=C(O)[C@@H]1C[C@@H](O)CN1
How the values were obtained:
Format in all cases: cell-based, human
IL-10 = test: Example 8 main study Luminex, LPS hPBMCs: IL-10; conditions: for IL-10 Concentration: individual replicates; for IL-10 Concentration (pg/ml), Mean: mean of replicates
Description: (§1) Human PBMCs were pretreated with YY-101, YDE-011, YDE-043 or reference compound; Xiidra® at various concentration (ranging from […] to 500 nM) for 2 h before stimulation. An equal volume of 0.5% DMSO was used as a vehicle control. Then, the cells were treated with LPS at 5 ug/ml, which was selected based on the pilot study. The supernatants from treated cells were harvested at 24 h and placed in a 96 well for Luminex cytokine & chemokine profiling using a Luminex 200 multiplex assay (Luminex; R&D system, USA).
(§2) The main study arm with triplicate wells per group in a 24-well plate: • 1. Blank • 2. PBMC: 0.5% DMSO • 3. PBMC+LPS (5 ug/ml) • 4. PBMC+YY-101 500 nM • 5. PBMC+YY-101 50 nM • 6. PBMC+YY-101 5 nM • 7. PBMC+YY-101 0.5 nM • 8. PBMC+LPS (5 ug/ml)+Xiidra® 500 nM • 9. PBMC+LPS (5 ug/ml)+Xiidra® 50 nM • 10. PBMC+LPS (5 ug/ml)+Xiidra® 5 nM • 11. PBMC+LPS (5 ug/ml)+Xiidra® 0.5 nM • 12. PBMC+LPS (5 ug/ml)+Xiidra® 0.05 nM • 13. PBMC+LPS (5 ug/ml)+Xiidra® 0.005 nM • 14. PBMC+LPS (5 ug/ml)+YY-101 500 nM • 15. PBMC+LPS (5 ug/ml)+YY-101 50 nM • 16. PBMC+LPS (5 ug/ml)+YY-101 5 nM • 17. PBMC+LPS (5 ug/ml)+YY-101 0.5 nM • 18. PBMC+LPS (5 ug/ml)+YY-101 0.05 nM • 19. PBMC+LPS (5 ug/ml)+YY-101 0.005 nM • 20. PBMC+LPS (5 ug/ml)+YDE-011 500 nM • 21. PBMC+LPS (5 ug/ml)+YDE-011 50 nM • 22. PBMC+LPS (5 ug/ml)+YDE-011 5 nM • 23. PBMC+LPS (5 ug/ml)+YDE-011 0.5 nM • 24. PBMC+LPS (5 ug/ml)+YDE-011 0.05 nM • 25. PBMC+LPS (5 ug/ml)+YDE-011 0.005 nM • 26. PBMC+LPS (5 ug/ml)+YDE-043 500 nM • 27. PBMC+LPS (5 ug/ml)+YDE-043 50 nM • 28. PBMC+LPS (5 ug/ml)+YDE-043 5 nM • 29. PBMC+LPS (5 ug/ml)+YDE-043 0.5 nM • 30. PBMC+LPS (5 ug/ml)+YDE-043 0.05 nM • 31. PBMC+LPS (5 ug/ml)+YDE-043 0.005 nM
(§3) Multiplex assay was used to measure 30 cytokines and chemokines. The 1:200 diluted cell supernatant and serial dilution of the standard were dispensed into a 96 well plate at 50 ul/well. Then, the pre-mixed cocktail of antibody-coated magnetic beads was dispensed at 50 ul/well and incubated at room temperature for 2 h in a horizontal orbital microplate shaker at 800±500 rpm. The beads were washed using a magnetic device to prevent loss. The biotin-antibody was dispensed in 50 ul of each well and incubated at room temperature for 1 h in a shaker at 800±500 rpm. After washing, streptavidin-PE was added at 50 ul/well and incubated at room temperature for 30 min in a shaker under the same conditions. Finally, after washing, wash buffer (100 ul/well) was added to the plate and incubated in a shaker for 2 min. The Luminex™ 200 setting were set according to the manufacturer's protocol. The data was calculated with a standard five-parameter logistic nonlinear regression analysis of the data (xPonent software 4.2, USA). Results were presented as concentration (ng/ml or pg/ml).

IL-8/CXCL8 = test: Example 8 main study Luminex, LPS hPBMCs: IL-8/CXCL8; conditions: for IL-8/CXCL8 Concentration: single replicates (1st, 2nd, 3rd)
Description: as §1, §2, §3

IL-1 alpha/IL-1F1 = test: Example 8 main study Luminex, LPS hPBMCs: IL-1 alpha/IL-1F1
Description: as §1, §2, §3

[1] = PBMC + LPS(5 ug/ml) + test article 0.005 nM
[2] = PBMC + LPS(5 ug/ml) + test article 0.05 nM
[3] = PBMC + LPS(5 ug/ml) + test article 0.5 nM
[4] = PBMC + LPS(5 ug/ml) + test article 5 nM
[5] = PBMC + LPS(5 ug/ml) + test article 50 nM
[6] = PBMC + LPS(5 ug/ml) + test article 500 nM
[7] = at as low as 5 μM, LPS 5 ug/mL 24 hrs
[8] = PBMC + LPS(5 ug/ml) + test article 0.005 nM, Mean
[9] = PBMC + LPS(5 ug/ml) + test article 0.005 nM, individual replicates
[10] = PBMC + LPS(5 ug/ml) + test article 0.05 nM, Mean
[11] = PBMC + LPS(5 ug/ml) + test article 0.05 nM, individual replicates
[12] = PBMC + LPS(5 ug/ml) + test article 0.5 nM, Mean
[13] = PBMC + LPS(5 ug/ml) + test article 0.5 nM, individual replicates
[14] = PBMC + LPS(5 ug/ml) + test article 5 nM, Mean
[15] = PBMC + LPS(5 ug/ml) + test article 5 nM, individual replicates
[16] = PBMC + LPS(5 ug/ml) + test article 50 nM, Mean
[17] = PBMC + LPS(5 ug/ml) + test article 50 nM, individual replicates
[18] = PBMC + LPS(5 ug/ml) + test article 500 nM, Mean
[19] = PBMC + LPS(5 ug/ml) + test article 500 nM, individual replicates

CC(C)C[C@H](NC(=O)[C@H](CCC(N)=O)NC(=O)CNC(=O)[C@@H]1C[C@@H](O)CN1)C(=O)NCC(=O)O [YDE-043] (H-[Hyp]GQLG-OH; N-terminus and C-terminus assumed)
IL-10 Concentration (IL-10; [1]): 651.0 pg/mL and 806.6 pg/mL and 1134.2 pg/mL
IL-10 Concentration (pg/ml), Mean (IL-10; [1]): 863.9 pg/mL
IL-10 Concentration (IL-10; [2]): 436.9 pg/mL and 518.2 pg/mL and 381.9 pg/mL
IL-10 Concentration (pg/ml), Mean (IL-10; [2]): 445.7 pg/mL
IL-10 Concentration (IL-10; [3]): 436.9 pg/mL and 491.3 pg/mL and 624.7 pg/mL
IL-10 Concentration (pg/ml), Mean (IL-10; [3]): 517.6 pg/mL
IL-10 Concentration (IL-10; [4]): 545.0 pg/mL and 637.8 pg/mL and 558.4 pg/mL
IL-10 Concentration (pg/ml), Mean (IL-10; [4]): 580.4 pg/mL
IL-10 Concentration (IL-10; [5]): 571.7 pg/mL and 598.2 pg/mL and 518.2 pg/mL
IL-10 Concentration (pg/ml), Mean (IL-10; [5]): 562.7 pg/mL
IL-10 Concentration (IL-10; [6]): 464.2 pg/mL and 545.0 pg/mL and 436.9 pg/mL
IL-10 Concentration (pg/ml), Mean (IL-10; [6]): 482.0 pg/mL
LPS-induced IL-10 (in words) (IL-10; [7]): significantly reduced
IL-8/CXCL8 Concentration, Mean (IL-8/CXCL8; [1]): 59062.0 pg/mL
IL-8/CXCL8 Concentration (IL-8/CXCL8; [1]): 56206.5 pg/mL and 53607.2 pg/mL and 67372.3 pg/mL
IL-8/CXCL8 Concentration, Mean (IL-8/CXCL8; [2]): 51146.6 pg/mL
IL-8/CXCL8 Concentration (IL-8/CXCL8; [2]): 48485.5 pg/mL and 53107.5 pg/mL and 51846.7 pg/mL
IL-8/CXCL8 Concentration, Mean (IL-8/CXCL8; [3]): 52327.4 pg/mL
IL-8/CXCL8 Concentration (IL-8/CXCL8; [3]): 55144.2 pg/mL and 51593.2 pg/mL and 50244.9 pg/mL
IL-8/CXCL8 Concentration, Mean (IL-8/CXCL8; [4]): 56067.9 pg/mL
IL-8/CXCL8 Concentration (IL-8/CXCL8; [4]): 56540.0 pg/mL and 58269.2 pg/mL and 53394.4 pg/mL
IL-8/CXCL8 Concentration, Mean (IL-8/CXCL8; [5]): 55575.7 pg/mL
IL-8/CXCL8 Concentration (IL-8/CXCL8; [5]): 57759.9 pg/mL and 58638.2 pg/mL and 50329.0 pg/mL
IL-8/CXCL8 Concentration, Mean (IL-8/CXCL8; [6]): 51601.8 pg/mL
IL-8/CXCL8 Concentration (IL-8/CXCL8; [6]): 51413.7 pg/mL and 49678.2 pg/mL and 53713.6 pg/mL
LPS-induced IL-8 (in words) (IL-8/CXCL8; [7]): significantly reduced
LPS-induced IL-1a levels (in words) (IL-1 alpha/IL-1F1; LPS 5 ug/mL 24 hrs): significantly lowered
IL-1 alpha/IL-1F1 Concentration (IL-1 alpha/IL-1F1; [8]): 489.6 pg/mL
IL-1 alpha/IL-1F1 MFI (IL-1 alpha/IL-1F1; [8]): 30.5
IL-1 alpha/IL-1F1 Concentration (IL-1 alpha/IL-1F1; [9]): 383.2 pg/mL and 490.5 pg/mL and 595.1 pg/mL
IL-1 alpha/IL-1F1 MFI (IL-1 alpha/IL-1F1; [9]): 27.0 and 30.5 and 34.0
IL-1 alpha/IL-1F1 Concentration (IL-1 alpha/IL-1F1; [10]): 330.9 pg/mL
IL-1 alpha/IL-1F1 MFI (IL-1 alpha/IL-1F1; [10]): 25.3
IL-1 alpha/IL-1F1 Concentration (IL-1 alpha/IL-1F1; [11]): 351.9 pg/ml and 320.3 pg/ml (2×)
IL-1 alpha/IL-1F1 MFI (IL-1 alpha/IL-1F1; [11]): 26.0 and 25.0 (2×)
IL-1 alpha/IL-1F1 Concentration (IL-1 alpha/IL-1F1; [12]): 351.9 pg/mL
IL-1 alpha/IL-1F1 MFI (IL-1 alpha/IL-1F1; [12]): 26.0
IL-1 alpha/IL-1F1 Concentration (IL-1 alpha/IL-1F1; [13]): 351.9 pg/mL and 367.6 pg/mL and 336.2 pg/mL
IL-1 alpha/IL-1F1 MFI (IL-1 alpha/IL-1F1; [13]): 26.0 and 26.5 and 25.5
IL-1 alpha/IL-1F1 Concentration (IL-1 alpha/IL-1F1; [14]): 465.1 pg/mL
IL-1 alpha/IL-1F1 MFI (IL-1 alpha/IL-1F1; [14]): 29.7
IL-1 alpha/IL-1F1 Concentration (IL-1 alpha/IL-1F1; [15]): 505.6 pg/ml and 444.9 pg/ml (2×)
IL-1 alpha/IL-1F1 MFI (IL-1 alpha/IL-1F1; [15]): 31.0 and 29.0 (2×)
IL-1 alpha/IL-1F1 Concentration (IL-1 alpha/IL-1F1; [16]): 434.5 pg/mL
IL-1 alpha/IL-1F1 MFI (IL-1 alpha/IL-1F1; [16]): 28.7
IL-1 alpha/IL-1F1 Concentration (IL-1 alpha/IL-1F1; [17]): 475.3 pg/mL and 444.9 pg/mL and 383.2 pg/mL
IL-1 alpha/IL-1F1 MFI (IL-1 alpha/IL-1F1; [17]): 30.0 and 29.0 and 27.0
IL-1 alpha/IL-1F1 Concentration (IL-1 alpha/IL-1F1; [18]): 424.2 pg/mL
IL-1 alpha/IL-1F1 MFI (IL-1 alpha/IL-1F1; [18]): 28.3
IL-1 alpha/IL-1F1 Concentration (IL-1 alpha/IL-1F1; [19]): 475.3 pg/mL and 414.2 pg/mL and 383.2 pg/mL
IL-1 alpha/IL-1F1 MFI (IL-1 alpha/IL-1F1; [19]): 30.0 and 28.0 and 27.0
